Assay results: US8481502B2, “Antibacterial aminoglycoside analogs” (Achaogen, Inc., priority 2009, dated 2013)
≈ marks a conversion by molar mass, not a printed value.

Assays:
[1] = tested on: E. coli ATCC 25922 (AECO001); experiment: MIC assay, CLSI broth microdilution, AECO001; assay type: cell-based; conditions: Escherichia coli; AECO001 is ATCC25922; Mueller Hinton Broth, 35 C, 20 hours
Protocol: (§1) Minimum inhibitory concentrations (MIC) were determined by reference Clinical and Laboratory Standards Institute (CLSI) broth microdilution methods per M7-A7 [2006]. Quality control ranges utilizing E. coli ATCC 25922, P. aeruginosa ATCC 27853 and S. aureus ATCC 29213, and interpretive criteria for comparator agents were as published in CLSI M100-S17 [2007]. Briefly, serial two-fold dilutions of the test compounds were prepared at 2× concentration in Mueller Hinton Broth. The compound dilutions were mixed in 96-well assay plates in a 1:1 ratio with bacterial inoculum. The inoculum was prepared by suspension of a colony from an agar plate that was prepared the previous day. Bacteria were suspended in sterile saline and added to each assay plate to obtain a final concentration of 5×10^5 CFU/mL. The plates were incubated at 35 C for 20 hours in ambient air.

[2] = tested on: P. aeruginosa ATCC 27853 (APAE001); experiment: MIC assay, CLSI broth microdilution, APAE001; assay type: cell-based; conditions: Pseudomonas aeruginosa; APAE001 is ATCC27853; Mueller Hinton Broth, 35 C, 20 hours
Protocol: as §1

Structure (SMILES) | MIC [1] | MIC [2]
NC[C@@H](O)[C@H](O)C(=O)N[C@@H]1C[C@H](N)[C@@H](O[C@H]2O[C@H](CN)[C@@H](O)C[C@H]2N)[C@H](O[C@@H]2O[C@H](CO)[C@@H](O[C@H]3O[C@@H](CN)[C@@H](O)[C@H](O)[C@H]3N)[C@H]2O)[C@H]1O [1/11] | 1 to 16 µg/mL (≈ 1.4 to 22.4 µM) | ≤ 1 µg/mL
NC[C@@H]1O[C@H](O[C@H]2[C@@H](O)[C@H](O[C@@H]3[C@@H](O)[C@H](NC(=O)[C@@H](O)[C@@H](O)CN)C[C@H](N)[C@H]3O[C@H]3O[C@H](CN)[C@@H](O)C[C@H]3N)O[C@@H]2CO)[C@H](N)[C@@H](O)[C@@H]1O [2/3] | 1 to 16 µg/mL (≈ 1.4 to 22.4 µM) | ≤ 1 µg/mL
NC[C@@H](F)[C@H](O)C(=O)N[C@@H]1C[C@H](N)[C@@H](O[C@H]2O[C@H](CN)[C@@H](O)C[C@H]2N)[C@H](O[C@@H]2O[C@H](CO)[C@@H](O[C@H]3O[C@@H](CN)[C@@H](O)[C@H](O)[C@H]3N)[C@H]2O)[C@H]1O [3/3] | ≤ 1 µg/mL | ≤ 1 µg/mL
NC[C@@H]1O[C@H](O[C@H]2[C@@H](O)[C@H](O[C@@H]3[C@@H](O)[C@H](NC(=O)[C@@H](O)C(F)(F)CN)C[C@H](N)[C@H]3O[C@H]3O[C@H](CN)[C@@H](O)C[C@H]3N)O[C@@H]2CO)[C@H](N)[C@@H](O)[C@@H]1O [4/3] | 1 to 16 µg/mL (≈ 1.36 to 21.7 µM) | ≤ 1 µg/mL
NC[C@@H]1C[C@@H](O)[C@@H](N)[C@@H](O[C@H]2[C@H](O[C@@H]3O[C@H](CO)[C@@H](O[C@H]4O[C@@H](CN)[C@@H](O)[C@H](O)[C@H]4N)[C@H]3O)[C@@H](O)[C@H](NC(=O)[C@@H](O)[C@H](O)CN)C[C@@H]2N)O1 [5/12] | 1 to 16 µg/mL (≈ 1.4 to 22.4 µM) | ≤ 1 µg/mL
NC[C@@H]1C[C@@H](O)[C@@H](N)[C@@H](O[C@H]2[C@H](O[C@@H]3O[C@H](CO)[C@@H](O[C@H]4O[C@@H](CN)[C@@H](O)[C@H](O)[C@H]4N)[C@H]3O)[C@@H](O)[C@H](NC(=O)[C@@H](O)[C@@H](O)CN)C[C@@H]2N)O1 [6/3] | 1 to 16 µg/mL (≈ 1.4 to 22.4 µM) | ≤ 1 µg/mL
NC[C@@H]1C[C@@H](O)[C@@H](N)[C@@H](O[C@H]2[C@H](O[C@@H]3O[C@H](CO)[C@@H](O[C@H]4O[C@@H](CN)[C@@H](O)[C@H](O)[C@H]4N)[C@H]3O)[C@@H](O)[C@H](NC(=O)[C@@H](O)[C@H](F)CN)C[C@@H]2N)O1 [7/3] | 1 to 16 µg/mL (≈ 1.39 to 22.3 µM) | ≤ 1 µg/mL
NC[C@@H]1C[C@@H](O)[C@@H](N)[C@@H](O[C@H]2[C@H](O[C@@H]3O[C@H](CO)[C@@H](O[C@H]4O[C@@H](CN)[C@@H](O)[C@H](O)[C@H]4N)[C@H]3O)[C@@H](O)[C@H](NC(=O)[C@@H](O)C(F)(F)CN)C[C@@H]2N)O1 [8/3] | 1 to 16 µg/mL (≈ 1.36 to 21.7 µM) | ≤ 1 µg/mL
